Read-outs that look alike come from different tables or passages of the source.
What was measured:
[1] = Pharmacokinetics following IV administration to rats (plasma, HPLC/MS); details: male, Sprague Dawley, rat
[2] = Pharmacokinetics following PO administration to rats (plasma, HPLC/MS); details: male, Sprague Dawley, rat, 20 mg/kg
Procedure: (§1) At specified time points, blood samples were drawn, harvested for plasma via centrifugation at 5,400 rpm at 4° C. for 5 min, and 100 microliters (μl) plasma transferred from each sample into a fresh tube containing 2 μl of 50% formic acid. The tubes were vortexed for 5-10 seconds, immediately placed in dry ice and then stored in a −80° C. freezer until analysis by HPLC/MS.
as §1, with “μl” for “microliters (μl)”
as §1, with “μl” for “microliters (μl)”
as §1, with “μl” for “microliters (μl)”

[3] = system: inflammatory pain; experiment: Carrageenan-induced inflammatory paw model (Randall Selitto test); assay type: in vivo, Sprague-Dawley rats; details: 200 mg/kg Compound AG-2 oral gavage three hours after carrageenan; FIG. 10
Procedure: The carrageenan-induced inflammatory paw model (see, e.g., Bileviciute-Ljungar I et al, 2006, J Pharmacol Exp Ther 317, 220-227) was used to assess the ability of peripheral opioid agonist Compound AG-2 to reduce inflammatory pain, by measuring paw withdrawal latency in response to mechanical stimulation of the paw.
Sprague-Dawley rats, fasted for approximately 18 hours prior to compound administration, were used for this study. Rats were injected in the plantar surface of the right hindpaw with 100 ul of a 1% carrageenan solution formulated in water (carrageenan available from Spectrum Chemical Manufacturing Corporation, Gardena, Calif.) three hours prior to compound administration, in order to elicit maximum edema formation. The hindpaw withdrawal latency to mechanical stimulation for each paw was tested before compound administration for use as a pre-treatment baseline, and at specific time points after compound administration using the Randall Selitto test (instrument available from IITC Inc. Life Science, Woodland Hills, Calif.). Briefly, the hindpaw was pinched until the animal retracted its paw. The amount of force (in grams) required to elicit a withdrawal response was assessed. Two repeat measures were taken at each time point, and the averaged value from the inflamed paw was used to quantify the percentage of change from the pre-treatment baseline. […]

[4] = target: T1, human μ-opioid receptor (Homo sapiens, UniProt P35372); experiment: cell-based; details: for EC50: CHO cells expressing human μ-opioid receptor, read-out: Agonist EC50
T1 construct: expressed in transfected cells; host or cells: CHO (Chinese hamster ovary) cells
T1 sequence (P35372 whole entry): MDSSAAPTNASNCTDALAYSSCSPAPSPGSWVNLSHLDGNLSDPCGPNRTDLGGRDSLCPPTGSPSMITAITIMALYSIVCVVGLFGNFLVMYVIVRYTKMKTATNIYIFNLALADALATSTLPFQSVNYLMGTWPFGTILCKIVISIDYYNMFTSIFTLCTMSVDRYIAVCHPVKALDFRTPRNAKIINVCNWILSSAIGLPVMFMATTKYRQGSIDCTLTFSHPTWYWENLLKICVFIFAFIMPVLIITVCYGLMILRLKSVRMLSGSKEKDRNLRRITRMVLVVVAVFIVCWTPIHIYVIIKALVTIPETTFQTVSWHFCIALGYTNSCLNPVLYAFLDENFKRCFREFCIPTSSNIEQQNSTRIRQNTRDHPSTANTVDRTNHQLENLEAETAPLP
Description: (§2) This Example measures the ability of certain compounds of the present disclosure to effect an agonist or antagonist response when exposed to recombinant human μ-opioid receptor expressed in CHO cells.
(§3) The general procedure follows the protocol described by Wang, J.-B., Johnson, P. S., Perscio, A. M., Hawkins, A. L., Griffin, C. A. and Uhl, G. R. (1994). FEBS Lett., 338: 217-222. More specifically, the assays included each of the compounds indicated in Table 1 and recombinant Chinese hamster ovary (CHO) cells expressing the human μ-opioid receptor on their cell surfaces. The control reaction included 1 μM DAMGO. The reaction mixtures were incubated at 37° C. for 10 min, and the reaction product was cyclic AMP (cAMP). The samples were submitted to homogeneous time resolved fluorescence (HTRF®). EC50 values (concentration producing a half-maximal specific response) were determined by non-linear regression fit using the Hillplot software.

[5] = male, Sprague Dawley, rat, in vivo, iv, 10 mg/kg
[6] = system: CNS opioid receptors; experiment: Rat tail flick latency assay, morphine induced analgesia; assay type: in vivo, Sprague Dawley rats; details: antagonist subcutaneously 70 min after 5 mg/kg morphine; Compound AN-1, AN-6 0.3 mg/kg, naltrexone 1.8 mg/kg; FIG. 8
Procedure: A rat tail flick latency assay (see, e.g., Tejwani G et al., 2002, Anesth Analg 94, 1542-1546) was used to determine whether peripheral opioid antagonists of the embodiments were capable of effecting antagonist activity at opioid receptors in the central nervous system. In such an assay, the tails of rats are exposed to a noxious stimulus, such as heat, and tail withdrawal latency is measured. The latency (i.e., time between exposure and reaction) is an indication of the amount of pain experienced by the rat.
In this study, the tails of healthy male Sprague Dawley rats (5 per group) were painted with India ink (i.e., a 6-cm portion, starting at the tip). The rats were then placed in Broome Restrainers and allowed to acclimate for at least 15 min. At the conclusion of the acclimation period, baseline tail withdrawal latencies (baseline latency) were measured by exposing the rats to a focused light beam of 80 volts at a position 6.5 cm above the tail until the rats flicked their tail out of the path of the light beam. This step was repeated twice for each rat, in two spots, i.e., 2 cm and 4 cm from the tip of the tail. The responses were averaged and used as a baseline latency value for comparison to post-drug treatment latency values.

[7] = target: T1, human μ-opioid receptor; experiment: In vitro human μ-opioid receptor antagonist cellular functional assay (cAMP, HTRF); assay type: cell-based; details: for EC50: CHO cells expressing human μ-opioid receptor
Description: as §2, §3

[8] = Plasma and cerebrospinal fluid penetration following IV administration to rats; details: for Compound conc. in CSF / Compound conc. in plasma / Plasma/CSF partitioning coefficient / concentration at 2 min: rats; for concentration at 2 min: male, Sprague Dawley, rat, in vivo, iv, 10 mg/kg, Compound conc. in CSF
[9] = IV 10 mg/kg Compound AN-1, 2-minute time point
[10] = IV 10 mg/kg of each compound, 2-min time point (Table 12)

## COc1ccc2c3c1O[C@H]1C(OC(=O)N(C)CCNC(=O)[C@@H](CCCNC(=N)N)NC(=O)CC(=O)O)=CC[C@@]4(O)[C@@H](C2)N(C)CC[C@]314 [Compound AG-2, N-(oxycodone-6-enol-carbonyl-methylamino)ethylamine-D-arginine-malonic acid]
[1]; 2 mg/kg
  Cmax: 3410 ng/mL
[2]
  Cmax: 46.1 ± 0.9 ng/mL
  Tmax: 37.5 ± 15 min
[3]
  increase in pain tolerance compared to the untreated rats: approximately 50%
[4]
  OC/Compound AG-2 relative potency: 10.9
[4]; Table 1, Example 9, 37° C. 10 min
  EC50: 850 nM
[5]
  Compound conc. in CSF: 22.8 ng/mL
  Compound conc. in plasma: 28,600 ng/mL
  Plasma/CSF partitioning coefficient: 1,254

## CN(CCNC(=O)[C@@H](CCCNC(=N)N)NC(=O)CC(=O)O)C(=O)OC1=CCC2C3Cc4ccc(O)c5c4[C@@]2(CCN3C)[C@H]1O5 (stereo partly drawn) [Compound AG-4, N-(hydromorphone-6-enol-carbonyl-methyl-amino)ethylamine-D-arginine-malonic acid]
[4]; EC50 at the human μ-opioid receptor, hydromorphone to Compound AG-4
  HM/Compound AG-4 relative potency: 16.1
[4]; Table 15, Example 24
  EC50: 37 nM

## CN(CCNC(=O)[C@@H](CCCNC(=N)N)NC(=O)CC(=O)O)C(=O)OC1=CC[C@@]2(O)[C@H]3Cc4ccc(O)c5c4[C@@]2(CCN3CC2CC2)[C@H]1O5 [Compound AN-1, N-(naltrexone-6-enol-carbonyl-methylamino)ethylamine-D-arginine-malonic acid]
[6]
  effect on morphine induced analgesia (% MPE, tail flick): no inhibition of analgesia
[7]; Antagonist EC50, Table 1, Example 9, 37° C. 10 min
  EC50: 180 nM
[7]; EC50 at the human μ-opioid receptor, naltrexone to Compound AN-1
  NTX/Compound AN-1 relative potency: 6.0
[1]; 10 mg/kg
  Cmax: 46300 ng/mL
[2]
  AUC: 139 ± 32 ng·h/mL
  Cmax: 41 ± 13 ng/mL
  Tmax: 45 ± 17.4 min
[8]; 620/9.6
  relative plasma/CSF partitioning coefficient of Compound AN-1 to naltrexone: about 65
[8]; [9]
  Compound conc. in CSF: 74.7 ng/mL
  Compound conc. in plasma: 46,300 ng/mL
  Plasma/CSF partitioning coefficient: 620

## C=CCN1CC[C@]23c4c5ccc(O)c4O[C@H]2C(OC(=O)N(C)CCNC(=O)[C@@H](CCCNC(=N)N)NC(=O)CC(=O)O)=CC[C@@]3(O)C1C5 [Compound AN-4, N-(naloxone-6-enol-carbonyl-methylamino)ethylamine-D-arginine-malonic acid]
[8]; [10]
  Compound conc. in CSF: 101 ng/mL
  Compound conc. in plasma: 49,200 ng/mL
  Plasma/CSF partitioning coefficient: 487

## CN(CCNC(=O)[C@@H](CCCCN)NC(=O)CC(=O)O)C(=O)OC1=CC[C@@]2(O)C3Cc4ccc(O)c5c4[C@@]2(CCN3CC2CC2)[C@H]1O5 [Compound AN-6, N-(naltrexone-6-enol-carbonyl-methylamino)ethylamine-D-lysine-malonic acid]
[6]
  effect on morphine induced analgesia (% MPE, tail flick): no inhibition of analgesia
[8]; [10]
  Compound conc. in CSF: 95.0 ng/mL
  Compound conc. in plasma: 79,400 ng/mL
  Plasma/CSF partitioning coefficient: 836

## CC(=O)N[C@H](CC(=O)O)C(=O)NCCN(C)C(=O)OC1=CC[C@@]2(O)C3Cc4ccc(O)c5c4[C@@]2(CCN3CC2CC2)[C@H]1O5 [Compound AN-7, N-(naltrexone-6-enol-carbonyl-methylamino)ethylamine-D-aspartic acid-acetate]
[7]; Antagonist EC50, Table 15, Example 24
  EC50: 300 nM
[7]; EC50 at the human μ-opioid receptor, naltrexone to Compound AN-7
  NTX/Compound AN-7 relative potency: 8.6
[8]; [10]
  Compound conc. in CSF: 462 ng/mL
  Compound conc. in plasma: 76,600 ng/mL
  Plasma/CSF partitioning coefficient: 166

## O=C1CC[C@@]2(O)[C@H]3Cc4ccc(O)c5c4[C@@]2(CCN3CC2CC2)[C@H]1O5 [Naltrexone, naltrexone, reference compound]
[6]
  effect on morphine induced analgesia (% MPE, tail flick): rapid inhibition of analgesia
[8]; [9]
  concentration at 2 min: 7.44 ng/mL
  Compound conc. in plasma: 71.1 ng/mL
[8]; IV 10 mg/kg Compound AN-3, 2-minute time point
  concentration at 2 min: 0.813 ng/mL
[5]
  Compound conc. in plasma: 9.17 ng/mL

From patent US20130079364A1, “Peripheral Opioid Agonists and Peripheral Opioid Antagonists” (SIGNATURE THERAPEUTICS, INC., priority 2010, published 2013)
